Laboratory results: patent US8846749B2, “Anticancer-aiding compound, method for preparing the same, anticancer-aiding composition containing the same and method for reducing anticancer drug resistance using the same” (Ewha University-Industry Collaboration Foundation, priority 2009, dated 2014)

Test system: not given
Assay: not given
Conditions: not given

SMILES | melting point [°C]
COc1cccc2c(=O)c3c(O)cc(OCC4CS4)cc3oc12 (stereo not shown) [Compound 3, 1-hydroxy-5-methoxy-3-(thiiran-2-ylmethoxy)-9H-xanthen-9-one] | 187
COc1cccc2c(=O)c3c(O)cc(OCC(S)CCl)cc3oc12 (stereo not shown) [Compound 13, 3-(3-chloro-2-mercaptopropoxy)-1-hydroxy-5-methoxy-9H-xanthen-9-one] | 125
O=c1c2c(O)cc(OCC3CS3)cc2oc2ccc3ccccc3c12 (stereo not shown) [Compound 14, 11-hydroxy-9-(thiiran-2-ylmethoxy)-12H-benzo[a]xanthen-12-one] | 167 to 168
O=c1c2ccccc2oc2cc(OCC(O)CO)cc(O)c12 (stereo not shown) [Compound 6, 3-(2,3-dihydroxypropoxy)-1-hydroxy-9H-xanthen-9-one] | 170
O=c1c2ccccc2oc2cc(OCC(O)CCl)cc(O)c12 (stereo not shown) [Compound 2, 3-(3-chloro-2-hydroxypropoxy)-1-hydroxy-9H-xanthen-9-one] | 144
O=c1c2ccc3ccccc3c2oc2cc(OCC3CS3)cc(OCC3CS3)c12 (stereo not shown) [Compound 12, 8,10-bis(thiiran-2-ylmethoxy)-7H-benzo[c]xanthen-7-one] | 202
COc1cccc2c(=O)c3c(O)cc(OCC(O)CCl)cc3oc12 (stereo not shown) [Compound 1, 3-(3-chloro-2-hydroxypropoxy)-1-hydroxy-5-methoxy-9H-xanthen-9-one] | 184
O=c1c2c(OCC3CS3)cc(OCC3CS3)cc2oc2ccc3ccccc3c12 (stereo not shown) [Compound 15, 9,11-bis(thiiran-2-ylmethoxy)-12H-benzo[a]xanthen-12-one] | 225 to 226
O=c1c2c(OCC3CO3)cc(OCC3CO3)cc2oc2ccc3ccccc3c12 (stereo not shown) [Compound 17, 9,11-bis(oxiran-2-ylmethoxy)-12H-benzo[a]xanthen-12-one] | 198 to 200

Now from value to compound:

melting point [°C] | SMILES
201 to 202 | O=c1c2cc3ccccc3cc2oc2cc(OCC3CO3)cc(O)c12 (stereo not shown) [Example 20, 1-hydroxy-3-(oxiran-2-ylmethoxy)-12H-benzo[b]xanthen-12-one]
149 | O=c1c2ccccc2sc2cc(OCC3CS3)cc(O)c12 (stereo not shown) [Compound 8, 1-hydroxy-3-(thiiran-2-ylmethoxy)-9H-thioxanthen-9-one]
151 | O=c1c2ccccc2sc2cc(OCC(O)CCl)cc(O)c12 (stereo not shown) [Compound 10, 3-(3-chloro-2-hydroxypropoxy)-1-hydroxy-9H-thioxanthen-9-one]
107 | COc1cc(OCC(O)CCl)cc2oc3ccccc3c(=O)c12 (stereo not shown) [Compound 9, 3-(3-chloro-2-hydroxypropoxy)-1-methoxy-9H-xanthen-9-one]
240 | COc1cccc2c(=O)c3c(OCC4CS4)cc(OCC4CS4)cc3oc12 (stereo not shown) [Compound 5, 1,3-bis(thiiran-2-ylmethoxy)-5-methoxy-9H-xanthen-9-one]
134 | O=c1c2ccccc2sc2cc(OCC(S)CCl)cc(O)c12 (stereo not shown) [Compound 11, 3-(3-chloro-2-mercaptopropoxy)-1-hydroxy-9H-thioxanthen-9-one]
189 | COc1cccc2c(=O)c3c(O)cc(OCC(O)CO)cc3oc12 (stereo not shown) [Compound 7, 3-(2,3-dihydroxypropoxy)-1-hydroxy-5-methoxy-9H-xanthen-9-one]

Molecular target: P-gp (Homo sapiens, UniProt P08183)
Assay: not given
Conditions: 1 h, 100 μM

Sequence of P-gp (P08183 whole entry): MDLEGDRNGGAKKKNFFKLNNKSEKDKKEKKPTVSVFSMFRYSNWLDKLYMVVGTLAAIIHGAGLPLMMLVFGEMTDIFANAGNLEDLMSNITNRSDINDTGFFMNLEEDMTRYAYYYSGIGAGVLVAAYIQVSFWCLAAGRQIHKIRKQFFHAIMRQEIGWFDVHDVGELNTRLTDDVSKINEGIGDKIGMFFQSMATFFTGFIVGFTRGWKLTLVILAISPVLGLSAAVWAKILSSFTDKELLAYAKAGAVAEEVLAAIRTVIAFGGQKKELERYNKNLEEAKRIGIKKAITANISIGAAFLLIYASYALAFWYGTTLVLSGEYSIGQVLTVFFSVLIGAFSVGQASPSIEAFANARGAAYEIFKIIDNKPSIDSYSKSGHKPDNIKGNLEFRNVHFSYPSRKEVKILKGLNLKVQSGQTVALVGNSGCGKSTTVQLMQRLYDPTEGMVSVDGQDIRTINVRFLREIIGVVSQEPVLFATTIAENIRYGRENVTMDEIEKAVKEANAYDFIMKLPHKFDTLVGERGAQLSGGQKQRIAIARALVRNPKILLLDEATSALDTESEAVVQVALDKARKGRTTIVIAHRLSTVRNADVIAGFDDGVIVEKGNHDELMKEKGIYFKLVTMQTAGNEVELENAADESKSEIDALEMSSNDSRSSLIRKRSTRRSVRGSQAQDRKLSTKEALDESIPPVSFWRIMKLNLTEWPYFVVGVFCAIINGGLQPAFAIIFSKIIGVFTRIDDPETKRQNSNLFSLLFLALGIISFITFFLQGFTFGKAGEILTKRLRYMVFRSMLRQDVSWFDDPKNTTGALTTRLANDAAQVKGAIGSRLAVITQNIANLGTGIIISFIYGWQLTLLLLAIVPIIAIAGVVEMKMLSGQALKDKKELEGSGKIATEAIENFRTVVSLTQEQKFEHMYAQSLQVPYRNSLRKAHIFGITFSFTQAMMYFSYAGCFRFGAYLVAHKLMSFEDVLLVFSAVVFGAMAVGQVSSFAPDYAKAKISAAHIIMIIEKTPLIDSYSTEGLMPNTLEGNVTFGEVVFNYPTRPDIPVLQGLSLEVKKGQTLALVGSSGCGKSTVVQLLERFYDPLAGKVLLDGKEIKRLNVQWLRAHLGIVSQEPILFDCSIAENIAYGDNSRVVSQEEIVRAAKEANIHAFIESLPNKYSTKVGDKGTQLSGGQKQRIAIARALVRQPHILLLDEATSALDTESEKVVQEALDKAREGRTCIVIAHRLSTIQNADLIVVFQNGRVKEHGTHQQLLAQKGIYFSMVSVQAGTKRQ

SMILES | Cellular efflux amount of daunomycin (%)
O=c1c2cc3ccccc3cc2oc2cc(OCC3CS3)cc(OCC3CS3)c12 (stereo not shown) [Compound 19, 1,3-bis(thiiran-2-ylmethoxy)-12H-benzo[b]xanthen-12-one] | 42.45 ± 7.23
O=c1c2c(O)cc(OCC3CS3)cc2oc2ccc3ccccc3c12 (stereo not shown) [Compound 14, 11-hydroxy-9-(thiiran-2-ylmethoxy)-12H-benzo[a]xanthen-12-one] | 64.81 ± 20.45
O=c1c2ccc3ccccc3c2oc2cc(OCC3CS3)cc(OCC3CS3)c12 (stereo not shown) [Compound 12, 8,10-bis(thiiran-2-ylmethoxy)-7H-benzo[c]xanthen-7-one] | 40.39 ± 4.38
O=c1c2cc3ccccc3cc2oc2cc(OCC3CS3)cc(O)c12 (stereo not shown) [Compound 18, 1-hydroxy-3-(thiiran-2-ylmethoxy)-12H-benzo[b]xanthen-12-one] | 44.15 ± 5.08
O=c1c2c(OCC3CS3)cc(OCC3CS3)cc2oc2ccc3ccccc3c12 (stereo not shown) [Compound 15, 9,11-bis(thiiran-2-ylmethoxy)-12H-benzo[a]xanthen-12-one] | 40.04 ± 5.33

Test system: MCF-7/ADR cells
Assay: Effects of compounds on cytotoxicity of daunomycin (SRB staining)
Assay type: cell-based
Conditions: Homo sapiens, NCI/ADR-RES, daunomycin alone (DMSO control), 2-hour incubation, SRB after 3 days
Protocol: The cells were cultured to confluence on the plate at 37° C. for 24 hours.
At this time, the group to which only DMSO was added in place of the compounds in accordance with the present invention was taken as a control. […] After 3 days, cytotoxicity was examined according to an SRB staining method which is briefly described as follows. Cells were fixed with 10% TCA for one hour, washed 4 times with water, and then dried. An SRB reagent (0.4% w/v in 1% acetic acid) was added to each well and one hour later, the plate was washed 4 times with 1% acetic acid.

SMILES | IC50 [µM]
COc1cccc2c1C(=O)c1c(O)c3c(c(O)c1C2=O)C[C@@](O)(C(C)=O)C[C@@H]3O[C@H]1C[C@H](N)[C@H](O)[C@H](C)O1 [DNM, Daunomycin] | 25.6
